Measurements taken from patent US12582652B2, “3-(ethoxydifluoromethyl)-6-(5-fluoro-6-(2,2,2-trifluoroethoxy)pyridin-3-yl)-[1,2,4]triazolo[4,3-a]pyrazine as an ion channel modulator” (Praxis Precision Medicines, Inc., priority 2022, dated 2026).
Entries after “also recorded” stand apart in the source; their conditions may differ.

Experiments:
[1] = tested on: healthy participants; test: 2-part Phase 1 trial (28 days; OXC combination): qEEG and ASSR pharmacodynamics; type: in vivo, human; settings: Part A, 90 mg QD 28 days
Text: This was a 2-part randomized, placebo-controlled Phase 1 trial in healthy participants aged 18-55 years. […] PD effects were examined on quantitative EEG (qEEG; resting and vigilant conditions) and stimulated EEG using auditory steady state response (ASSR). A total of 48 participants were enrolled; Part A, n=30; Part B, n=18.

[2] = Phase 1 SAD/MAD/food effect trial: pharmacokinetics; type: in vivo, human
Procedure: (§1) This was a 3-part Phase 1 clinical trial in healthy participants aged 18-55 years. Parts A and B were randomized, placebo-controlled and evaluated the effects of single (2.5-150 mg) and multiple (30-120 mg, 14 days QD (every day)) ascending oral doses of Compound 1, respectively. Part C was an open-label, randomized, crossover design evaluating the PK of a single oral dose (90 mg) in fasted and fed states. In Parts A (n=64) and B (n=32), participants were randomized 3:1 to Compound 1 or placebo (n=8/cohort). In Part C (n=16), participants were randomized 1:1 to one of two treatment sequences receiving a single dose of 90 mg Compound 1 in the fed (following a high-fat/high calorie meal) or fasted (≥10 hours after the last, and 4 hours before the next, meal) state.

[3] = tested on: healthy participants; test: Phase 1 SAD/MAD/food effect trial: safety and tolerability; type: in vivo, human
Procedure: as §1

[4] = tested on: hNaV1.1, hNaV1.2, hNaV1.5, rNaV1.2, dNaV1.2, mNaV1.6, rNaV1.6; test: Persistent INa of other NaV isoforms and orthologs, patch clamp; settings: read-out: persistent INa IC50 values across isoforms and orthologs
Text: Persistent INa was activated from resting/closed channel conformations by maintaining a hyperpolarized holding potential (−120 mV).

[5] = target: hNaV1.2 (Homo sapiens, UniProt Q99250); test: Peak INa tonic block, patch clamp; type: cell-based
Procedure: (§2) Tonic Block (TB): Tonic Block (TB) protocols used low stimulation rates (about 0.1 Hz) and negative potentials (−120 mV) to keep channels in closed (resting) states. Pharmacology was measured during peak INa in response to step to 0 mV. No leak subtraction was used.

[6] = target: hNaV1.5 (Homo sapiens, UniProt Q14524); test: Peak INa tonic block, patch clamp; type: cell-based
Procedure: as §2

[7] = target: hNaV1.1 (Homo sapiens, UniProt P35498); test: Peak INa tonic block, patch clamp; type: cell-based
Procedure: as §2

[8] = tested on: male CD-1 mice; test: Spontaneous locomotor activity (sLMA) test
Procedure: Male CD-1 mice, 6-weeks old, were obtained from Vital River (Beijing, China). The average body weight was 25-35 g at the time the experiments were carried out. The mice were housed in groups of 3-5 under controlled conditions (temperature: 20-26° C.; humidity: 40-70%; air exchange rate: 10-15 cycles/hour; 12:12 light-dark cycle with lights on at 5:00 a.m.). Food and water were available ad libitum. The mice were acclimated to these conditions for 6 days before the start of the studies.
Dosing solutions were prepared on each experiment day. […] All solutions were protected from light. Samples from dosing solutions were stored at 4° C. Both compound and vehicle were dosed at 10 ml/kg.
The sLMA test was carried out over two days. 5 of 10 mice from each treatment group were tested on each day. All animals were marked on the tail with a permanent marker and weighed. Mice were randomly assigned into one of the four treatment groups. Animals were acclimated to the test room at least 30 minutes before the start of the experiment.
Possible side effects, such as overt sedation, were recorded just before the start of the sLMA test.
Each mouse was automatically tracked with overhead cameras using a 1-minute sampling window in an isolated chamber. Spontaneous locomotor activity was then analyzed offline using the Animal Behavior Video Tracking Analysis System (Ji Liang Software Technology Co., Ltd., Shanghai, China).
Locomotor status was defined as >2 mm of movement in every 200 ms (Frame-rate recorded was 20 frames/second. Locomotor status was identified in every 4 frame-to-frame interval. The accumulated shift of tracking spots that exceeded 2 mm in every 4 frame intervals was identified as a locomotor epoch). Traveling distance was calculated automatically from all the locomotion epochs and analyzed.
All mice were anesthetized with CO2. Then, terminal plasma and brain tissue samples were collected from animals in the drug treatment groups. 500 μL whole blood was collected via cardiac puncture and placed in tubes with 10 μL EDTAK2. The tubes were then placed in wet ice until centrifuged at 2000 g for 5 minutes at 4° C. The supernatant plasma was pipetted into Eppendorf tubes.
All statistical analyses were conducted using GraphPad Prism 7.0. Data are presented as mean±s.e.m., and p<0.05 was regarded as statistically significant.
Dose-response and concentration-response curves for plasma and brain were fitted for each end-point using GraphPad Prism. From these fitted curves, TD50 and TC50 values were calculated.

[9] = target: T1, human NaV1.6 (Homo sapiens, UniProt Q9UQD0); test: Peak INa tonic block (TB), PatchXpress patch clamp; type: cell-based
T1 construct: stably expressing either human NaV1.6 (NP_055006); expressed in transfected cells
Procedure: HEK-293 cell lines stably expressing either human NaV1.6 (NP_055006), mouse NaV1.6 (NP_035453.2), or rat NaV1.6 (NP_062139) were used. All cells were seeded at 2×10^6 cells per Nunc T75 flask for 2 days in culture. At time of harvest for assays, the cell counts were approximately 6×10^6 cells. Cells were washed (1×) in DPBS (Hyclone, Cat #SH30028.03) for approximately 30 seconds. 1 mL of 1×0.05% Trypsin-EDTA (GIBCO Cat #25300-054) was added and swirled around to cover the bottom of the flask and was allowed to sit on the cells for approximately 4 minutes (±90% of the cells were lifted by light tapping of the flask). 10 mL of warmed media (DMEM high glucose media Hyclone, SH30022.02 supplemented with 10% Fetal Bovine Serum, 2 mM Sodium Pyruvate, 10 mM HEPES and 400 μg/mL G418) was added to inactivate the trypsin. Cells were triturated until a single cell suspension was achieved. A cell count was performed and cells were aliquoted into a 250 ml centrifuge tube at a concentration of 2×10^5/mL in +30 ml of prewarmed media. The 250 mL centrifuge tube was placed on a rocker in an incubator set at 28° C. and gently rocked for approximately 1 hour to allow cells to recover. Cell aliquots of 5 mL (1×10^6 cells) were placed in a 15 mL centrifuge tube and spun at 100×g for 2 minutes. Supernatant was removed leaving a cell pellet. 100 μL of external recording solution was added to the pellet and triturated 20 times to achieve a single cell suspension and then transferred to a 1.5 mL tube for placement in the PatchXpress® (Molecular Devices).
Compound 1 was provided as powder and prepared as 10 mM DMSO stocks in 1 dram glass vials prior to assay. Immediately prior to assay, Compound 1 was diluted with DMSO to 300×, the designated final assay concentration. Assay dilutions (1× concentration) were prepared by pipetting 3 μL of diluted Compound 1 into 897 μL of extracellular solution in a 1 mL glass shell vial. Vials were capped and vortexed until initiation of the PatchXpress® (Molecular Devices) recording protocol.
The same intracellular recording solution was used for the persistent and peak INa assays, which contained: 135 mM CsF, 10 mM CsCl, 5 mM NaCl, 10 mM HEPES, 5 mM EGTA at a pH of 7.4 (adjusted with CsOH) and a measured osmolarity of 298 mOsm (adjusted with mannitol). For the persistent INa assay, the external recording solution contained: 135 mM NaCl, 5.4 mM KCl, 5 mM glucose, 2 mM CaCl2), 1 mM MgCl2, 10 mM HEPES, and 200 nM ATX-II (sea anemone toxin, Alomone Labs; Jerusalem, Israel) at a pH of 7.4 (adjusted with NaOH) and a measured osmolarity of 300 mOsm (adjusted with mannitol). For the peak INa assays, the external recording solution contained: 100 mM NaCl, 35 mM NMDG, 5.4 mM KCl, 5 mM glucose, 2 mM CaCl2), 1 mM MgCl2, and 10 mM HEPES at a pH of 7.4 (adjusted with NaOH) and a measured osmolarity of 300 mOsm (adjusted with mannitol).
All studies were performed using the PatchXpress® (Molecular Devices) automated patch clamp platform (Molecular Devices) using the whole cell configuration. Recordings were performed at room temperature. Data were collected using Patch Commander software (Molecular Devices) and processed using DataXpress 2.0 (Molecular Devices). Cell acceptance criteria were continuously monitored by custom scripts during the recording. Acceptance criteria for all assays were: baseline peak INa>800 pA, Rseal>200 MΩ, and, where appropriate, persistent INa>100 pA. Compensation was 50% and leak subtraction was not used. Currents were filtered at 5 kHz and digitized at 32.5 kHz. Raccess and Rseal were monitored throughout the recording and cells with Raccess>10 MΩ or Rseal<200 MΩ were terminated automatically by script.
as §2

T1 sequence (Q9UQD0 whole entry): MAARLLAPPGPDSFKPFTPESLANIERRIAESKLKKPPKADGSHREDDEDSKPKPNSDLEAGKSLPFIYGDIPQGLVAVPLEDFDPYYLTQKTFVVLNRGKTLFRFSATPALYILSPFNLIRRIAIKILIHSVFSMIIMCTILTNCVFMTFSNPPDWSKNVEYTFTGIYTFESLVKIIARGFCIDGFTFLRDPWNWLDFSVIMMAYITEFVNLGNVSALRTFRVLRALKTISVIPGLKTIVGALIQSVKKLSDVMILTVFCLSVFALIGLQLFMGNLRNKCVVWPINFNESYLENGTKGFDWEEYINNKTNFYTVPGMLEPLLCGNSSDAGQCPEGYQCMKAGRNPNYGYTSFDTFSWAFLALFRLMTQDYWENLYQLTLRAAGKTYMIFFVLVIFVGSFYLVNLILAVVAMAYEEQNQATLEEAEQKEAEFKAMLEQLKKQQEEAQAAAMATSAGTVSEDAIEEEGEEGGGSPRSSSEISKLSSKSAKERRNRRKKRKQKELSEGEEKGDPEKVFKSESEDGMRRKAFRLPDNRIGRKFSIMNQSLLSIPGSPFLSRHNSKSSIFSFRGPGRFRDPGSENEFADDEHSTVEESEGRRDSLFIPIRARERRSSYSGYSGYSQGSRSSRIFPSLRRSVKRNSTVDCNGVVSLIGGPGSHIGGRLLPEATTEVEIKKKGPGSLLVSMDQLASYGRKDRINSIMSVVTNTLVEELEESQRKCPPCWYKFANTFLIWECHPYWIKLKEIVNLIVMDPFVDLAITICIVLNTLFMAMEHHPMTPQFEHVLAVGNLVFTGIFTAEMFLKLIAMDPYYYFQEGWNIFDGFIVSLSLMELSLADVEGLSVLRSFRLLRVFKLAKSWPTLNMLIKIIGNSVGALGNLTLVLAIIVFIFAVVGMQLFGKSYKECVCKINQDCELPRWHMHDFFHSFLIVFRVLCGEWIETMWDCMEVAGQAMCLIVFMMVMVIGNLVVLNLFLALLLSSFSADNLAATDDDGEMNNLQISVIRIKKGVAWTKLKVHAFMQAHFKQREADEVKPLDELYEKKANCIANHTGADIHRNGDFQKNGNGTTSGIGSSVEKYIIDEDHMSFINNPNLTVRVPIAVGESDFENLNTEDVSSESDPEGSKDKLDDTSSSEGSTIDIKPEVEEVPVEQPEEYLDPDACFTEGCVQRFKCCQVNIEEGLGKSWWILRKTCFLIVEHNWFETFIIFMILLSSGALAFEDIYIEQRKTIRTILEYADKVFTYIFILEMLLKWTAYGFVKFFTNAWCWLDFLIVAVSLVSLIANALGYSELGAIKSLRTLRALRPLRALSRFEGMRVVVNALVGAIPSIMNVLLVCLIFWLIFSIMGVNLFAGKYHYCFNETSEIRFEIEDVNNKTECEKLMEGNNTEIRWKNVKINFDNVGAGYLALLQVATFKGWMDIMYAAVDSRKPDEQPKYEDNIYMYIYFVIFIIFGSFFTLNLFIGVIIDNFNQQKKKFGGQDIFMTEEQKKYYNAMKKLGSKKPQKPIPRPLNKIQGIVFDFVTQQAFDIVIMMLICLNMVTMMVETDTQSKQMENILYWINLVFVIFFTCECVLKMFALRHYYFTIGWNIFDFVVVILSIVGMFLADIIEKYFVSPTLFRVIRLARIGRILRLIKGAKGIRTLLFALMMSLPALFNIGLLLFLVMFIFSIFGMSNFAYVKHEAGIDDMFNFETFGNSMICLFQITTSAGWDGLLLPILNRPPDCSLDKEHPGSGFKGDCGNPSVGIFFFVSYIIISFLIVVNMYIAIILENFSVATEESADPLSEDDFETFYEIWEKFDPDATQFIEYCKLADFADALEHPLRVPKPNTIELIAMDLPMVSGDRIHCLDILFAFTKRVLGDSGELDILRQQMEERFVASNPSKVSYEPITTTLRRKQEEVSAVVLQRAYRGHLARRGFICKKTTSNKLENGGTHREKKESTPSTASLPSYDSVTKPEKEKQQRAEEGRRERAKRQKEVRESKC
Chain of hNaV1.2 (Q99250 whole entry): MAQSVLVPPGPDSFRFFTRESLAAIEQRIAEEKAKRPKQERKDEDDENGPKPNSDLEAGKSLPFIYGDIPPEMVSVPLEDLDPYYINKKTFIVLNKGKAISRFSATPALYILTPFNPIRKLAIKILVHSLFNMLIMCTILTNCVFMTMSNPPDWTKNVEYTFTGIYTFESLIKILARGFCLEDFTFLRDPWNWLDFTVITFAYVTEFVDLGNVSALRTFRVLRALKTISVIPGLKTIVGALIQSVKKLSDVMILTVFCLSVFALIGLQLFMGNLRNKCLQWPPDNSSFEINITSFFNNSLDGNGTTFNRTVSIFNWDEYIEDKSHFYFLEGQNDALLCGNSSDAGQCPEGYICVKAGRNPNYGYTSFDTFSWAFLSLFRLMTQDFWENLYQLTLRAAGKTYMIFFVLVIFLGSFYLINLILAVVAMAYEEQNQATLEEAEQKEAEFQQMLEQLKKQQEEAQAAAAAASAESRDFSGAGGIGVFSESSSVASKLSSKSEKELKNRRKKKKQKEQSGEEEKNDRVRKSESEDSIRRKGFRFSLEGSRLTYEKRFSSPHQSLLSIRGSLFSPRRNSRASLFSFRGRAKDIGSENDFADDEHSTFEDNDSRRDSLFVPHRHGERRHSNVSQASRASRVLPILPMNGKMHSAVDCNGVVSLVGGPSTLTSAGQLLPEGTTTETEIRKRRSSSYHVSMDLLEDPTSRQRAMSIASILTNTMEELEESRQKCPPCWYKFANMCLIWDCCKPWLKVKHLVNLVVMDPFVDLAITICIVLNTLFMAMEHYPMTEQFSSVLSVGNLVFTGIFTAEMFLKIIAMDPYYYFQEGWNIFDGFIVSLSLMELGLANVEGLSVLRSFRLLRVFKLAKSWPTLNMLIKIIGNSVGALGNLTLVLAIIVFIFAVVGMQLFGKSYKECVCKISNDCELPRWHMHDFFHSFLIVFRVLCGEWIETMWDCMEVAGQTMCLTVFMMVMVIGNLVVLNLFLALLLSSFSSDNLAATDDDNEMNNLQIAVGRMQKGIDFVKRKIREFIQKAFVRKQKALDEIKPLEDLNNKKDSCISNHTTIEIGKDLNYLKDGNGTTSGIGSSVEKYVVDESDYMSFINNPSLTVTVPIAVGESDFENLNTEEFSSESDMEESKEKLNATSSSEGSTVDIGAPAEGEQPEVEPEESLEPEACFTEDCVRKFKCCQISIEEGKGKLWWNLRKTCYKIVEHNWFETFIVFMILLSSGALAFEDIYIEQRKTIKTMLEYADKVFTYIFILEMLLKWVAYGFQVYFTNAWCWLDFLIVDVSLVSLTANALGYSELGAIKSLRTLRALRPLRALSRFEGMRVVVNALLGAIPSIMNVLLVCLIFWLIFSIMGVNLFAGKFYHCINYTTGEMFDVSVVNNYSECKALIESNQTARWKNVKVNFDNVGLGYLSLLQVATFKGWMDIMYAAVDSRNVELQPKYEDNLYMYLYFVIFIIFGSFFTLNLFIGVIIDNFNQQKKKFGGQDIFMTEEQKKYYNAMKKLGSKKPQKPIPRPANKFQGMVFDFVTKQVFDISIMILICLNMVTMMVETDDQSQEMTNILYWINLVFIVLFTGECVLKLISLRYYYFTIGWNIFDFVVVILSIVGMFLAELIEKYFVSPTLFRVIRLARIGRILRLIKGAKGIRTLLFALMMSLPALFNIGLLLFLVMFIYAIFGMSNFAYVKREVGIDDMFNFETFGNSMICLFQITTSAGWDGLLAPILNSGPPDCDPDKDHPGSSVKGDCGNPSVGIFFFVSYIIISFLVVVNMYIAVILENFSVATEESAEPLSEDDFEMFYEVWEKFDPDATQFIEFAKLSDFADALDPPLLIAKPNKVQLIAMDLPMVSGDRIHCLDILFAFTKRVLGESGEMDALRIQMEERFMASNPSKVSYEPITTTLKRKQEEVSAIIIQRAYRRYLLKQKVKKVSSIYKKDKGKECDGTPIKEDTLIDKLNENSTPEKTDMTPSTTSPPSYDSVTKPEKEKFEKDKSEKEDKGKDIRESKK

## CCOC(F)(F)c1nnc2cnc(-c3cnc(OCC(F)(F)F)c(F)c3)cn12 [Compound 1, 3-(ethoxydifluoromethyl)-6-(5-fluoro-6-(2,2,2-trifluoroethoxy)pyridin-3-yl)-[1,2,4]triazolo[4,3-a]pyrazine]
[1]
  qEEG (Delta and Theta power) and ASSR (PLF and Evoked Power) vs placebo: Statistically significant differences
[2]; healthy adults, oral, single 2.5-150 mg, multiple 30-120 mg QD
  exposure over the evaluated dose range: increased dose proportionally
[2]; single 90-mg dose
  increase in AUC, fed vs fasted state: 14%
  increase in Cmax, fed vs fasted state: 9%
[3]; healthy participants
  TEAEs that were mild: > 92%
  safety findings in vital signs, clinical laboratory results, physical exams, ECGs, C-SSRS: no clinically significant safety findings
[3]; more frequent at 120 mg and 150 mg
  participants experiencing typical NaV blocker events: 34%
[3]; single doses up to 150 mg, up to 120 mg QD 14 days, 90 mg fed and fasted
  tolerability in healthy participants: well-tolerated; also recorded: well tolerated
[4]
  IC50: 0.109 to 0.18 µM
[5]
  IC50: 13.7 µM
  preference for persistent INa over peak INa tonic block: 80 fold
[6]
  preference for persistent INa over peak INa tonic block: > 174 fold
[6]; at 30 000 nmol/L
  peak INa tonic block inhibition: 12%
[7]
  IC50: 18.9 µM
  preference for persistent INa over peak INa tonic block: 173 fold
[8]; 10 mg/kg
  effect on locomotor function: no effect on locomotor function
[8]; 20 and 40 mg/kg p.o.
  total traveling distance in 30-minute sLMA test: significantly reduced; also recorded: reductions in the distance moved
[8]; Compound 1 10-40 mg/kg po
  sLMA distance moved, dose-response: dose-dependent reductions in distance moved
[8]; brain
  sLMA TC50 in brain (total): 1899 ng/g
[8]; brain, free
  sLMA TC50 in brain (free): 0.0697 µM
[8]; dose reducing sLMA by 50%
  Tolerability (sLMA) TD50: 44 mg/kg
[8]; free brain concentration
  Tolerability (sLMA) TC50 (free brain): 0.0697 µM
[8]; plasma
  sLMA TC50 in plasma (total): 1.553 µg/mL
[8]; plasma TC50 (sLMA) / plasma EC50 (MES), free concentrations
  PI (Plasma): 17.3
[8]; plasma, free
  sLMA TC50 in plasma (free): 0.3089 µM
[9]; hNaV1.6
  Ratio to Pers. INa (Peak INa TB / persistent INa): 60
[9]; hNaV1.6, 0.1 Hz, resting state
  IC50: 8.47 µM
